Here are results for 4 compounds from US20220195487A1, “Method for Measuring Inhibition of Bacteria by Antibacterial Drug, and Bacterial Counting Device and Method Thereof” (BEIJING XINJI JINNUO MEDICAL EQUIPMENT CO.,LTD., priority 2019, published 2022).

In brackets after ≈: the same amount, converted by molar mass.

What all share (type): cell-based
Assay [1] deals with Escherichia coli ATCC 25922. Nature of the assay: rapid susceptibility test by resistance counting method (Coulter principle). The protocol:
A method for measuring inhibition of Escherichia coli ATCC 25922 by ampicillin (by the resistance counting method).
The standard strain ATCC 25922 Escherichia coli was transferred for use later and incubated at 37° C. for 18 hours.
Ten of the drug susceptibility testing tubes (or cups) contained the required antibiotics of concentrations via doubling dilution (refer to American CLSI standards for concentrations for different drugs); the eleventh tube without antibiotics is used as a positive control (PC); the twelfth tube without bacterial suspension is used as a negative control (NC).
Prepare the bacterial strain and triturate on the wall of a vial with Mueller Hinton broth (MH for antibiotics susceptibility testing) to mix evenly, close the cap and measure the turbidity with a nephelometer (BD PhoenixSpec Nephelometer), the turbidity being 0.5 McFarland units, and set aside to be used later.
Inoculate the bacteria to be tested at an inoculum concentration specified in the CLSI (American Clinical and Laboratory Standards Institute) method for broth dilution drug susceptibility testing, and incubate in an incubator at 37° C.
Preparation of bacterial suspension: pick a spare colony to prepare bacterial suspension, the concentration of the bacterial suspension being 0.5 McFarland units. Add the colony suspension to (MH) broths containing different concentrations of various antibiotics and the content of bacteria in each tube after inoculation is 1×10∧4 cfu/mL to 5×10∧7 cfu/mL, optimally 5×10∧6 cfu/mL (colony forming units/mL), i.e. optimally 5×10∧6 colony forming units per mL.
Incubate in an incubator at 37° C., perform bacterial counting at 0 min, 10 min, 30 min, 60 min, 90 min and 120 min respectively by the resistance counting method (OMEC (Zhuhai) RC-3000 resistance (Coulter) particle counter). Measure twice, take the average value and record the data.
There were 12 tubes for testing, the eleventh tube being the positive control (PC), the twelfth tube being the negative control (NC) and the other 10 tubes being the test tubes. At each detection time point, measurements were carried out for all 12 tubes.

For assay [2], the system named is Escherichia coli ATCC 25922. Nature of the assay: broth dilution drug susceptibility testing method (CLSI). The following applies: ATCC25922, read-out: minimum inhibitory concentration. On the procedure:
(§1) In addition, the bacteria in this example were also subjected to three other methods of drug susceptibility testing, namely, measuring the inhibition of Escherichia coli ATCC 25922 in this example by ampicillin according to the operating manual of the VITEK microbial identification susceptibility system from Merieux, France, with a minimum inhibitory concentration of 4 μg/mL (micrograms per milliliter); measuring the inhibition of Escherichia coli ATCC 25922 in this example by ampicillin according to the Etest method, as detailed in the operating manual of the Etest kit from Thermo Fisher, USA, with a minimum inhibitory concentration of 2 μg/mL; and measuring the inhibition of Escherichia coli ATCC 25922 in this example by ampicillin according to broth dilution drug susceptibility testing method as specified in the broth dilution susceptibility standards by the American Clinical and Laboratory Standards Institute, with a minimum inhibitory concentration of 4 μg/mL. It can be seen that their results are all consistent and sensitive.
A general note: Broth dilution looks for growth in wells or tubes with falling amounts of substance.

Assay [3] deals with Escherichia coli ATCC 25922. Nature of the assay: VITEK microbial identification susceptibility system. The following applies: ATCC25922, read-out: minimum inhibitory concentration. The protocol: as §1
The subject of assay [4] is Escherichia coli ATCC 25922. Nature of the assay: Etest method. To be noted: ATCC25922, read-out: minimum inhibitory concentration. On the procedure: as §1
The subject of assay [5] is Enterococcus faecalis (ATCC29212). Nature of the assay: 24 h routine (conventional) drug susceptibility testing by visual observation.
For assay [6] the test system is unchanged. The assay can be described thus: rapid drug susceptibility testing of living cells (live bacteria counting, 2 h). The following applies: for Living cell counts: 2 h. The protocol:
(§2) 1.2.1 Preparation of bacterial strains: in accordance with the requirements of the CLSI standards, pick each fresh strains within 24 h with a turbidity of 0.5 McFarland units in the column of strain name in Table 7.
(§3) 1.2.2 Inoculation: take 100 μL of each bacterial suspension with a turbidity of 0.5 McFarland units and dispense to a 48-well plate with pre-configured gradient antibiotics, 500 μL dispensed in each well.
(§4) 1.2.3 Incubation and detection: incubate for 2 h at 37° C., and perform live bacteria counting. Record the 24 h routine susceptibility results for comparative analysis.

Assay [7] has the same test system. Nature of the assay: 2 h susceptibility by resistance bacterial counter. The following applies: Example 3, resistance counting, 2 h at 37° C., 60% of the positive count value as threshold. The protocol:
(§5) 2.2.1 Preparation of bacterial strains: In accordance with the requirements of the CLSI standards, pick each fresh strains within 24 h with a turbidity of 0.5 McFarland units in the column of strain name in Table 5;
(§6) 2.2.2 Inoculation: Take 100 μL of each bacterial suspension with a turbidity of 0.5 McFarland units and dispense to a 48-well plate with pre-configured gradient antibiotics, 500 μL dispensed in each well;
(§7) 2.2.3 Incubation and detection: Incubate for 2 h at 37° C., and measure with a resistance bacterial counter. Adjust the instrument to its best sensitivity and then count bacteria. Record the 24 h routine susceptibility results for comparative analysis.

For assay [8], the system named is Klebsiella pneumoniae. Nature of the assay: rapid drug susceptibility testing of living cells (live bacteria counting, 2 h). To be noted: for Living cell counts: 2 h. On the procedure: as §2, §3, §4
In assay [9] the test system is Klebsiella pneumoniae. Nature of the assay: 2 h susceptibility by resistance bacterial counter. To be noted: Example 3, resistance counting, 2 h at 37° C., 60% of the positive count value as threshold. The protocol:
as §5, §6, §7

Assay [10] concerns Klebsiella pneumoniae. The assay can be described thus: 24 h routine (conventional) drug susceptibility testing by visual observation.
Assay [11] concerns Acinetobacter baumannii. Nature of the assay: rapid drug susceptibility testing of living cells (live bacteria counting, 2 h). To be noted: for Living cell counts: 2 h. The protocol:
as §2, §3, §4

Assay [12] concerns Acinetobacter baumannii. The assay can be described thus: 2 h susceptibility by resistance bacterial counter. To be noted: Example 3, resistance counting, 2 h at 37° C., 60% of the positive count value as threshold. On the procedure:
as §5, §6, §7

Assay [13] relates to Acinetobacter baumannii. Nature of the assay: 24 h routine (conventional) drug susceptibility testing by visual observation.
Setting [14] is: Example 3, 24 h routine susceptibility.
The mark [15] stands for this setting: Example 4, 24 h routine susceptibility.
Setting [16] is: Example 4, live bacteria counting, 2 h at 37° C.

Turning to `CC1(C)S[C@@H]2[C@H](NC(=O)[C@H](N)c3ccccc3)C(=O)N2[C@H]1C(=O)O` [ampicillin], the bacterial counts in assay [1] (0 min, 0.5 μg/mL) turned out to be 210 cells/μL; in [1] (0 min, 1 μg/mL), 230 cells/μL; in assay [1] (0 min, 2 μg/mL) it was 208 cells/μL; in assay [1] (0 min, 4 μg/mL), 206 cells/μL; in [1] (0 min, 8 μg/mL), 204 cells/μL; in assay [1] (0 min, 16 μg/mL), 208 cells/μL. The bacterial counts in [1] (0 min, 32 μg/mL) was 210 cells/μL; in assay [1] (0 min, 64 μg/mL) it was 220 cells/μL; in assay [1] (0 min, 128 μg/mL) it was 212 cells/μL; in assay [1] (0 min, 256 μg/mL), 207 cells/μL; in [1] (60 min, 0.5 μg/mL) it was 807 cells/μL; in assay [1] (60 min, 1 μg/mL), 789 cells/μL. In addition, the bacterial counts stood at 811 cells/μL in assay [1] (60 min, 2 μg/mL); 304 cells/μL in assay [1] (60 min, 4 μg/mL); 250 cells/μL in [1] (60 min, 8 μg/mL); 264 cells/μL in [1] (60 min, 16 μg/mL); 290 cells/μL in [1] (60 min, 32 μg/mL); 278 cells/μL in assay [1] (60 min, 64 μg/mL). Also, the bacterial counts came out at 214 cells/μL in assay [1] (60 min, 128 μg/mL); 350 cells/μL in [1] (60 min, 256 μg/mL); 1540 cells/μL in assay [1] (90 min, 0.5 μg/mL); 1469 cells/μL in assay [1] (90 min, 1 μg/mL); 1511 cells/μL in [1] (90 min, 2 μg/mL); 432 cells/μL in assay [1] (90 min, 4 μg/mL). For the same compound, the bacterial counts is on record as 502 cells/μL in [1] (90 min, 8 μg/mL); 500 cells/μL in assay [1] (90 min, 16 μg/mL); 491 cells/μL in assay [1] (90 min, 32 μg/mL); 489 cells/μL in assay [1] (90 min, 64 μg/mL); 367 cells/μL in assay [1] (90 min, 128 μg/mL); 460 cells/μL in [1] (90 min, 256 μg/mL). Moreover, the bacterial counts came to 2534 cells/μL in assay [1] (120 min, 0.5 μg/mL); 2456 cells/μL in assay [1] (120 min, 1 μg/mL); 2463 cells/μL in assay [1] (120 min, 2 μg/mL); 590 cells/μL in [1] (120 min, 4 μg/mL); 524 cells/μL in assay [1] (120 min, 8 μg/mL); 560 cells/μL in assay [1] (120 min, 16 μg/mL). The bacterial counts in assay [1] (120 min, 32 μg/mL) turned out to be 578 cells/μL; in [1] (120 min, 64 μg/mL), 641 cells/μL; in [1] (120 min, 128 μg/mL) it was 498 cells/μL; in assay [1] (120 min, 256 μg/mL), 512 cells/μL. The MIC was determined as 4 µg/mL (≈ 11.4 µM) in assay [1] (ATCC25922, resistance method, Escherichia coli ATCC 25922, read-out: minimum inhibitory concentration (MIC)); 4 µg/mL (≈ 11.4 µM) in assay [2]; 4 µg/mL (≈ 11.4 µM) in [3]; 2 µg/mL (≈ 5.72 µM) in assay [4].
Turning to Penicillin, in assay [5] (setting [14]), the “24 hMIC” value was determined as 2. The compound further displayed an MIC, conventional drug susceptibility testing in assay [5] (setting [15]) of 2 µg/mL. Besides, the Living cell counts is 13789 cells/μL in assay [6] (0.03 μg/mL); 13679 cells/μL in [6] (0.06 μg/mL); 12958 cells/μL in [6] (0.12 μg/mL); 12088 cells/μL in assay [6] (0.25 μg/mL); 11105 cells/μL in assay [6] (0.5 μg/mL); 3085 cells/μL in assay [6] (1 μg/mL). Also, the Living cell counts in [6] (2 μg/mL) is on record as 1076 cells/μL; in assay [6] (4 μg/mL) it was 798 cells/μL; in [6] (8 μg/mL), 683 cells/μL; in [6] (16 μg/mL), 659 cells/μL. Further, the MIC, rapid drug susceptibility testing of living cells in [6] (setting [16]) was determined as 1 µg/mL. For the same compound, in assay [7], the “2 hMIC” value stood at 1.
For Gentamicin, the Living cell counts was 11879 cells/μL in the assay on Klebsiella pneumoniae [8] (0.03 μg/mL); 11426 cells/μL in the assay with Klebsiella pneumoniae [8] (0.06 μg/mL); 10167 cells/μL with Klebsiella pneumoniae [8] (0.12 μg/mL); 10278 cells/μL with Klebsiella pneumoniae [8] (0.25 μg/mL); 10971 cells/μL in the assay on Klebsiella pneumoniae [8] (0.5 μg/mL); 10654 cells/μL in the assay on Klebsiella pneumoniae [8] (1 μg/mL). Also, the Living cell counts with Klebsiella pneumoniae [8] (2 μg/mL) came out at 10549 cells/μL; in the assay on Klebsiella pneumoniae [8] (4 μg/mL), 10876 cells/μL; in the assay with Klebsiella pneumoniae [8] (8 μg/mL) it was 1876 cells/μL; in the assay with Klebsiella pneumoniae [8] (16 μg/mL), 880 cells/μL. This compound displayed an MIC, rapid drug susceptibility testing of living cells in the assay on Klebsiella pneumoniae [8] (setting [16]) of 8 µg/mL. In addition, the “2 hMIC” value with Klebsiella pneumoniae [9] worked out at 4. Besides, the “24 hMIC” value with Klebsiella pneumoniae [10] (setting [14]) turned out to be 8. The compound further yielded an MIC, conventional drug susceptibility testing with Klebsiella pneumoniae [10] (setting [15]) of 8 µg/mL.
Regarding `C[C@@H](O)[C@H]1C(=O)N2C(C(=O)O)=C(S[C@@H]3CN[C@H](C(=O)N(C)C)C3)[C@H](C)[C@H]12` [Meropenem], the Living cell counts was determined as 7959 cells/μL with Acinetobacter baumannii [11] (0.03 μg/mL); 6495 cells/μL in the assay on Acinetobacter baumannii [11] (0.06 μg/mL); 1574 cells/μL in the assay on Acinetobacter baumannii [11] (0.12 μg/mL); 1570 cells/μL in the assay with Acinetobacter baumannii [11] (0.25 μg/mL); 1514 cells/μL with Acinetobacter baumannii [11] (0.5 μg/mL); 1490 cells/μL with Acinetobacter baumannii [11] (1 μg/mL). Moreover, the Living cell counts was determined as 1479 cells/μL in the assay with Acinetobacter baumannii [11] (2 μg/mL), 1561 cells/μL with Acinetobacter baumannii [11] (4 μg/mL), 1003 cells/μL with Acinetobacter baumannii [11] (8 μg/mL) and 979 cells/μL in the assay on Acinetobacter baumannii [11] (16 μg/mL). For the same compound, the MIC, rapid drug susceptibility testing of living cells in the assay with Acinetobacter baumannii [11] (setting [16]) was 0.12 µg/mL. The “2 hMIC” value in the assay on Acinetobacter baumannii [12] worked out at 0.12. Moreover, the “24 hMIC” value in the assay on Acinetobacter baumannii [13] (setting [14]) amounted to 0.12. The compound also displayed an MIC, conventional drug susceptibility testing against Acinetobacter baumannii [13] (setting [15]) of 0.12 µg/mL (≈ 0.313 µM).
